Source: patent publication US10004753B2, “Methods for treating tauopathy” (The J. David Gladstone Institutes, priority 2015, dated 2018)

Legend:
[1] = tested on: HEK293 cells overexpressing hTau (WT) and p300; experiment: Ac-tau and p-tau Western blot in HEK293 cells treated with salicylate; assay type: cell-based, human; settings: 0, 5, 10 mM salicylate for 24 hr
Method: To examine the effects of salicylate treatment on tau acetylation and phosphorylation, HEK293 cells overexpressing hTau (WT) and p300 were treated with sodium salicylate (SS).
FIGS. 1A-1D. Salicylate inhibits p300 and reduces ac-tau and p-tau in vitro (FIG. 1A) HEK293 cells overexpressing wild-type human tau were treated with 0, 5, 10 mM salicylate for 24 hr. Representative Western blot of four experiments. (FIG. 1B) Quantification of ac-tau and p-tau levels in HEK293 cells treated with salicylate. ac-tau/t-tau, p-tau/t-tau in non-treated cells were set as 1. n=4. **, p<0.01, ***, p<0.001 (two-tails unpaired t-test). Error bar, S.E.M. (FIG. 1C) Rat primary cortical neurons infected with lenti-hTau (WT) were treated with 0, 5, or 10 mM salicylate for 24 hr. Representative Western blot of four experiments. (FIG. 1D) Quantification of ac-tau, p-tau and p300 levels in primary neurons treated with salicylate. ac-tau/t-tau, p-tau/t-tau and p300/GAPDH in non-treated cells were set as 1. n=4. *, p<0.05, **, p<0.01, ***, p<0.001 (two-tails unpaired t-test). Error bar, S.E.M.

[2] = molecular target: p300 (Homo sapiens, UniProt Q09472); settings: recently identified; cited from earlier work
Chain of p300 (Q09472 whole entry, species assumed): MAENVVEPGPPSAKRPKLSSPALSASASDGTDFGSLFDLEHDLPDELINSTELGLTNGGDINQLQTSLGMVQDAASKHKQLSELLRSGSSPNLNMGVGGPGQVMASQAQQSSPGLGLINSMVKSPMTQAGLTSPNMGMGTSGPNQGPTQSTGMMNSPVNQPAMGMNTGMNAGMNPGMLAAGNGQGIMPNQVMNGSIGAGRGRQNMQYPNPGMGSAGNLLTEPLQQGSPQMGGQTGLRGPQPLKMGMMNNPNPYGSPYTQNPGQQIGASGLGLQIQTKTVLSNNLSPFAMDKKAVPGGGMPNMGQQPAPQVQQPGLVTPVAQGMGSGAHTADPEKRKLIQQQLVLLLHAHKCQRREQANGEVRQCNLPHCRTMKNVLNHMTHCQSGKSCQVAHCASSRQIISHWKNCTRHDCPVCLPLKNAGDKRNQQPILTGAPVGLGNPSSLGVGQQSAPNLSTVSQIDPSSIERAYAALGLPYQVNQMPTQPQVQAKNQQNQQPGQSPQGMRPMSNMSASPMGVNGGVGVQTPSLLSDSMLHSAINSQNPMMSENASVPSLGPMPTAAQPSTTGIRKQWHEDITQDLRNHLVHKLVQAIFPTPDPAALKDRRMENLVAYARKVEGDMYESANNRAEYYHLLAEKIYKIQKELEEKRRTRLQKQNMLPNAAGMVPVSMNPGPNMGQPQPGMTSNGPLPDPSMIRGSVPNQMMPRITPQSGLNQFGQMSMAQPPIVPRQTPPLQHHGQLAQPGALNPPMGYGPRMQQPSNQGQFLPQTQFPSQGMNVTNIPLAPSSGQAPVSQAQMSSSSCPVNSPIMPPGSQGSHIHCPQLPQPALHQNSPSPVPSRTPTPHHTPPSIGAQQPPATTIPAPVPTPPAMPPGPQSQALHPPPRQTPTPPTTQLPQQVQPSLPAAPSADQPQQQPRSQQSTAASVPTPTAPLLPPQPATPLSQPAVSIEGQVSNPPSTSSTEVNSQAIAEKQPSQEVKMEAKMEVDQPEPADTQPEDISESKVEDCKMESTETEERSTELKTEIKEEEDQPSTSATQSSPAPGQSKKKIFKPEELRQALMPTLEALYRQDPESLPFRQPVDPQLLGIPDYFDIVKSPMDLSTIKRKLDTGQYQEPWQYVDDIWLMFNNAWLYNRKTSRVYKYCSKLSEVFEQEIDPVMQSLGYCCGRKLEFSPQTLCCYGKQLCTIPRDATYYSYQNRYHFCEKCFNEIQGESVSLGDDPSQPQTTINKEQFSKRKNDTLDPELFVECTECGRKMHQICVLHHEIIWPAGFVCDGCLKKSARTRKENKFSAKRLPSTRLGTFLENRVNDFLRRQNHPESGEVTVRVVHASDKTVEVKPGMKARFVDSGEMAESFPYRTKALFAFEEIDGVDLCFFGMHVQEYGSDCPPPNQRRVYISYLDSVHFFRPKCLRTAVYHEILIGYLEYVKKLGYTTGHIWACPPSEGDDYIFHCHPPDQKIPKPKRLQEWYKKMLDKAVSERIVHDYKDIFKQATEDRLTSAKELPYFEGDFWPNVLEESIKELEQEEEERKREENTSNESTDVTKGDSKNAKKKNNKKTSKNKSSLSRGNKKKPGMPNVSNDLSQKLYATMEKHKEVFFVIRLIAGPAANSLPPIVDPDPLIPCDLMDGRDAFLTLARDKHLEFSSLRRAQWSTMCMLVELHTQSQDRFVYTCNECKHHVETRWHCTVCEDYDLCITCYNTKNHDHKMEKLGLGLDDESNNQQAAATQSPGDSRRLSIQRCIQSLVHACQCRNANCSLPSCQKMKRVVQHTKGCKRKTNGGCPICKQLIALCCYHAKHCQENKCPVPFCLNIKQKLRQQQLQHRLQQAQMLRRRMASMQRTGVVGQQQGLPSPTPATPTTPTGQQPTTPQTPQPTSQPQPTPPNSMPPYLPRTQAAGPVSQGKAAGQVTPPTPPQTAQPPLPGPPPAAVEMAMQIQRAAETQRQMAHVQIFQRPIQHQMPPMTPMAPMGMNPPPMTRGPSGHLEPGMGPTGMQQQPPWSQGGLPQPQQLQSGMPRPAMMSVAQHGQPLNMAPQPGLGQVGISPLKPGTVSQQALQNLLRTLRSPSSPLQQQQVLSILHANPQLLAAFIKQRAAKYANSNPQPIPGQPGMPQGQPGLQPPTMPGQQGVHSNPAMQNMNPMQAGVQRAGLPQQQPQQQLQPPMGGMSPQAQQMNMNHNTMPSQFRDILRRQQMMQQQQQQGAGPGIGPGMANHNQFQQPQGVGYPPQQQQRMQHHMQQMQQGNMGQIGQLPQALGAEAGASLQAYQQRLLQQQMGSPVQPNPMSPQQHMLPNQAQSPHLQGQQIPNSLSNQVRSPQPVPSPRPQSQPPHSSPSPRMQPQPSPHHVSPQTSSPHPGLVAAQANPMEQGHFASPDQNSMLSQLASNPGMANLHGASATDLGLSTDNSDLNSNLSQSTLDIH

[3] = tested on: primary neurons, K174Q tau; experiment: Tau-lowering effect of salicylate on K174Q mutant tau in primary neurons; assay type: cell-based; settings: K174 mutated to glutamine
[4] = PK analyses of salsalate (SSA) and salicylic acid (SA) in brain and plasma; assay type: in vivo, C57B6 mice; settings: oral gavage, single bolus dose, mice
Method: SSA was administered to C57B6 mice via oral gavage as a single bolus dose. Mice were sacrificed at predetermined time points and plasma and brain tissue samples were harvested for analysis by PPL labs (Redwood City, Calif., USA). SSA and its metabolite SA were measured simultaneously using oxopropanoyloxy benzoic acid as an internal standard solution. To extract SSA/SA from brain, 200 μl of 50% Acetonitrile in 0.1% formic acid was added to 30-50 mg of cortical tissue, followed by homogenization and vortexing. After addition of 200 μl of the internal standard solution, the samples were centrifuged and the supernatants were transferred for injection. To measure SSA/SA in the plasma, 10 μl of plasma samples were mixed with 90 μl H2O and 100 μl of Internal Standard Solution, followed by centrifugation and injection. HPLC was performed using a C18 column following a gradient program (10% to 90% acetonitrile over a period of 6 min) with a flow rate of 0.4 ml/min. The injection volume was ˜5 μl. Mass spectrometry analyses were performed on 3200 Q TRAP system (AB SCIEX, Framingham, Mass. USA.) using an MQL algorithm.

[5] = tested on: PS19 mice; experiment: Fixed Location Dry Maze; assay type: in vivo, mouse; settings: 225 mg/kg oral gavage for 8 weeks; 7-8 month old PS19 mice
Method: For SSA treatment experiments, only female PS19 mice obtained from Jackson Laboratory were used. The mice were housed in a conventional facility at Stanford University (Palo Alto, Calif.<USA) with a 12-h light/dark reverse cycle and ad libitum access to food and water. All behavior experiments of PS19 mice were performed during daylight hours and carried out under Stanford University School of Medicine, Institutional Animal Care and Use Committee-approved guidelines.
The Fixed Location Dry Maze is also called DMP dry maze (Faizi, M., et al. Brain Behav 2, 142-154 (2012)). Experiments were performed at an animal facility at Stanford University (Palo Alto, Calif.). Mice were housed at a standard temperature (22±1° C.), in a reverse light-controlled environment (lights off from 8:30 am to 8:30 pm) with ad libitum access to food and water. Animals are group-housed with minimal enrichment such as shelter (paper towel tubes and nestlets). The experimenter remained blinded to the experimental groups throughout the entire study. […] The subjects were monitored by a video tracking system directly above maze, and the parameters were measured using the computer software Ethovision. […] Time in each quadrant was recorded and memory was assessed by the time spent in the target quadrant versus the other three quadrants. […]

[6] = tested on: AAV-K174Q-injected mice; experiment: SSA treatment of AAV-K174Q-injected mice; assay type: in vivo, mouse
Source text: FIG. 8 provides (Left) an immunoblot analysis of ac-H2AK5, H2A, p-tau (AT8 and PHF-1), t-tau (HT7) and GAPDH in mice infected with AAV-K174Q and treated with SSA or vehicle; and (Right) a graph depicting the results of a quantification of ac-H2AK5 and H2A. n=11 (vehicle) or 10 (SSA) mice; *P<0.05, unpaired Student's t-test; values are mean±s.e.m.
ELISA analysis of K174Q tau after SSA treatment. n=11 (vehicle) or 10 (SSA) mice; ns, not significant; P=0.3647; unpaired Student's t-test; values are mean±s.e.m.
FIG. 10 provides graphs showing that levels of PHF1-positive p-tau relative to t-tau, or AT8-positive p-tau normalized by t-tau or GAPDH, were not affected by SSA treatment. Levels of PHF-1-positive p-tau normalized to HT7 (left) or AT8-positive p-tau normalized to HT7 (middle) or GAPDH (right) after SSA treatment. n=11 (vehicle) or 10 (SSA) mice; ns, not significant, unpaired Student's t-test. Values are mean±s.e.m.
Nissl staining (left) and hippocampal volume (right) in mice expressing K174Q tau after SSA treatment. Scale bars, 500 μm; n=11 (vehicle) or 10 (SSA) mice; ns, not significant, unpaired Student's t-test. Values are mean±s.e.m.
For AAV-Tau (adeno-associated virus encoding Tau) injection experiments, only male mice were purchased from Jackson Laboratory with the same age and genetic background (C57BL/6) and used for all the experiments. The mice were housed in a pathogen-free barrier facility at UCSF with a 12-h light/dark cycle and ad libitum access to food and water. All behavior experiments were performed during daylight hours. All animal procedures were carried out under University of California, San Francisco, Institutional Animal Care and Use Committee-approved guidelines.
To determine if SSA's beneficial effects involve inhibition of ac-K174 in vivo. Two-month after injecting with AAV-K174Q, mice were treated with SSA daily as previously performed in PS19 mice. Ac-H2AK5 levels were reduced in the SSA-treated group, confirming inhibition of p300 by SSA (FIG. 8). […] Levels of PHF1-positive p-tau relative to t-tau, or AT8-positive p-tau normalized by t-tau or GAPDH, were also not affected by SSA treatment (FIG. 10).

[7] = tested on: PS19 mice; experiment: NFT analysis by Gallyas silver staining; assay type: in vivo, mouse; settings: female and male cohorts, age 10-11 months
Source text: FIGS. 12A and 12B provide silver staining results in neurites from neocortex and hippocampal regions for mice treated with SSA. Analysis of NFTs by Gallyas silver staining (FIG. 12A) and quantification of silver-positive cells in neurites from neocortex and hippocampal regions CA1 and CA3 (FIG. 12B) in vehicle-treated NTG mice and PS19 mice treated with vehicle or SSA. Scale bar, 250 μm (c, top); 25 μm (c, middle and bottom); n=8 mice (age 10-11 months) per genotype per treatment; *P<0.05, unpaired Student's t-test. Values are mean±s.e.m.
Prominent NFTs and dystrophic neurites, positive for Gallyas silver staining, were detected throughout the forebrains in PS19 mice (FIG. 12A).

[8] = tested on: PS19 mice; experiment: Hippocampal volume and NeuN-positive cell number; assay type: in vivo, mouse; settings: 10 months old PS19 mice vs wild-type littermates
Source text: The neurodegeneration phenotype of PS19 mice was examined by measuring hippocampal volume and NeuN-positive cell number. […] (FIG. 4A) 10 months old PS19 mice have significant hippocampal volume loss compared to wild-type, which is absent in SSA-treated group. Left. Representative nissl staining of hippocampus from vehicle-treated WT, vehicle-treated PS19 and SSA-treated PS19 mice. ***, p<0.001, *, p<0.05 (two-tails unpaired t-test). Error bar, S.E.M. Scale bar, 500 um. (FIG. 4B) 10 months old PS19 mice have significant reduction of NeuN-positive cells compared to wild-type, which is absent in SSA-treated group. Left. Representative NeuN staining of hippocampus from vehicle-treated WT, vehicle-treated PS19 and SSA-treated PS19 mice. **, p<0.01 (two-tails unpaired t-test). Error bar, S.E.M. (FIG. 4C) NeuN number positively correlates with time spent in target quadrant in dry maze. p=0.0142 (linear regression).

[9] = tested on: PS19 mice; experiment: Western blot of ac-tau, p-tau, t-tau, p300 and ac-H2A in hippocampal/brain lysate; assay type: in vivo, mouse
Source text: The levels of ac-tau and phospho-tau in the hippocampal lysate of PS19 mice were examined (FIG. 5A).
Salsalate treatment in PS19 mice inhibits p300 activity and reduces tau acetylation. (FIG. 5A) Representative Western blot showing levels of ac-tau, p-tau, t-tau and GAPDH in brain lysate of PS19 mice treated with salsalate (SSA) or vehicle (veh). Wild-type (WT) littermates treated with vehicle and tau knockout (KO) mice were included as controls. (FIG. 5B) Quantification of ac-tau and p-tau levels in brain lysate of PS19 mice treated with vehicle or salsalate. ac-tau/t-tau and p-tau/t-tau in vehicle-treated group were set as 1. n=8. **, p<0.01 (two-tails unpaired t-test). Error bar, S.E.M. (FIG. 5C) Representative Western blot showing levels of p300, ac-H2A(K5), H2A and GAPDH in brain lysate of PS19 mice treated with salsalate (SSA) or vehicle (veh). (FIG. 5D) Quantification of p300 and ac-H2A levels in brain lysate of PS19 mice treated with vehicle or salsalate. p300/GAPDH and ac-H2A/H2A in vehicle-treated group were set as 1. n=8. *, p<0.05 (two-tails unpaired t-test). Error bar, S.E.M.

[10] = AAV-K174Q-injected mice, vs vehicle
[11] = brain lysate of PS19 mice, vs vehicle
[12] = hippocampal lysate of PS19 mice, vs vehicle-treated group

SMILES	AT8-positive phospho-tau level (p-tau/t-tau) [1]	Ac-tau level (ac-tau/t-tau) [1]	p300 inhibition [2]	Tau-lowering effect with K174Q mutation [3]	Brain penetration [4]	Memory retention in probe trial (time in target vs non-target quadrant) [5]	Spatial learning (learning curve) [5]	Ac-H2AK5 levels ([6]; AAV-K174Q-injected mice, SSA daily, vs vehicle)	AT8-positive p-tau normalized by t-tau or GAPDH [6, 10]	Hippocampal atrophy (hippocampal volume) [6, 10]	PHF1-positive p-tau relative to t-tau [6, 10]	Levels of t-tau (ELISA) ([6]; K174Q injected mice, vs vehicle treated controls)	Number of Gallyas silver-positive neurons and neurites in cortex and hippocampus [7]	Hippocampal volume [8]	Number of NeuN-positive cells in hippocampal section [8]	t-tau levels in PS19 mice ([9]; PS19 mice)	p300 HAT activity as measured by levels of histone acetylation (ac-H2A/H2A) [9, 11]	p300 levels (p300/GAPDH) [9, 11]	AT-8 positive phospho-tau levels (p-tau/t-tau) [9, 12]	ac-tau levels (ac-tau/t-tau) [9, 12]
O=C(O)c1ccccc1O [salicylate, Salicylic acid]	reduced	significantly reduced by salicylate in a dose-dependent manner	p300 inhibitor	abolished the tau-lowering effects	–	–	–	–	–	–	–	–	–	–	–	–	–	–	–	–
O=C(Oc1ccccc1C(=O)O)c1ccccc1O [salsalate]	–	–	–	–	readily penetrates into the brain	significantly rescued the deficit	did not rescue the learning deficit	reduced	not affected	failed to prevent/reduce hippocampal atrophy	not affected	failed to reduce levels of t-tau	reduced the number of Gallyas silver-positive neurons and neurites	did not show any hippocampal volume loss	did not show any significant difference compared to wild-type	tau-lowering effects	significant reduction of p300 HAT activity	trend of reduction in p300 levels	trend of reduction in AT-8 positive phospho-tau levels, although the difference was not significant	significantly lower ac-tau levels
